Results as given in patent US8822503B2, “2-pyridone compounds” (Taisho Pharmaceutical Co., Ltd, priority 2009, dated 2014).

Biological target: T1, human liver GK (Homo sapiens, UniProt P35557)
T1 construct: GST (glutathione S-transferase) (N); made in house; host or cells: E. coli
T1 sequence (P35557 1-466 isoform P35557-2): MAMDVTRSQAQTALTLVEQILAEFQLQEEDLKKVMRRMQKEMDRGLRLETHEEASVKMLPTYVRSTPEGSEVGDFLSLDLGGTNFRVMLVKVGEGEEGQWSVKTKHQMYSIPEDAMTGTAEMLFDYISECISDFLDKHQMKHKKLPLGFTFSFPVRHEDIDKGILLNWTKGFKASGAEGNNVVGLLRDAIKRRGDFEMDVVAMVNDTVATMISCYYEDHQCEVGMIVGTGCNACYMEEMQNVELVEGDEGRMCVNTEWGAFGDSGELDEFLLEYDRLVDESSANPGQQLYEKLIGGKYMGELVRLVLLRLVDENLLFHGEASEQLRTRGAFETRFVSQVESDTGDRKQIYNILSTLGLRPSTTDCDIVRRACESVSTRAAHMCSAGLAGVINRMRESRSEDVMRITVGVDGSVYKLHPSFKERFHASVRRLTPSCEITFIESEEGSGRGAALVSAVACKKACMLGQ
Experiment: GK activation test
Type: biochemical
Conditions: test compound concentration needed to activate 50% of maximum activation ability; 4 mM 14C-labeled glucose, 2 mM ATP, room temperature, 20 minutes
How it was run: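 GST-tagged human liver GK from E. coli (0.24 μg/well) with 4 mM 14C-glucose, 2 mM ATP in Hepes-KOH pH 7.1, KCl, MgCl2, DTT, 1% DMSO, 20 min room temperature. Labeled glucose 6-phosphate captured on anion resin, eluted and counted. EC50 = concentration giving half of maximal activation.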

| SMILES | EC50 |
| --- | --- |
| CS(=O)(=O)c1ccc(/C(=C\[C@H]2CCC(=O)C2)c2ccc(C3CC3)c(=O)[nH]2)cc1 [Example 1-108, 3-Cyclopropyl-6-{(E)-1-[4-(methylsulfonyl)phenyl]-2-[(1S)-3-oxocyclopentyl]ethenyl}pyridin-2(1H)-one] | 0.01 to 0.5 µM |
| CC(C)c1ccc(/C(=C\C2CCOCC2)c2ccc(Cl)c(=O)[nH]2)cc1 [Example 1-109, 3-Chloro-6-[(E)-1-[4-(propan-2-yl)phenyl]-2-(tetrahydro-2H-pyran-4-yl)ethenyl]pyridin-2(1H)-one] | 0.5 to 3 µM |
| O=c1[nH]c(/C(=C/C2CCOCC2)c2ccc(S(=O)(=O)C3CC3)cc2)ccc1Cl [Example 1-110, 3-Chloro-6-[(E)-1-[4-(cyclopropylsulfonyl)phenyl]-2-(tetrahydro-2H-pyran-4-yl)ethenyl]pyridin-2(1H)-one] | 0.5 to 3 µM |
| O=c1[nH]c(/C(=C/C2CCOCC2)c2ccc(N3CCOCC3)cc2)ccc1Cl [Example 1-111, 3-Chloro-6-[(E)-1-[4-(morpholin-4-yl)phenyl]-2-(tetrahydro-2H-pyran-4-yl)ethenyl]pyridin-2(1H)-one] | 3 to 10 µM |
| CC(=O)c1ccc(/C(=C\C2CCOCC2)c2ccc(Cl)c(=O)[nH]2)cc1 [Example 1-112, 6-[(E)-1-(4-Acetylphenyl)-2-(tetrahydro-2H-pyran-4-yl)ethenyl]-3-chloropyridin-2(1H)-one] | 3 to 10 µM |
| CS(=O)(=O)c1ccc(C/C(=C\C2CCOCC2)c2ccc(Cl)c(=O)[nH]2)cc1 [Example 1-113, 3-Chloro-6-[(1E)-3-[4-(methylsulfonyl)phenyl]-1-(tetrahydro-2H-pyran-4-yl)prop-1-en-2-yl]pyridin-2(1H)-one] | 3 to 10 µM |
| CSc1ccc(C(CC2CCCC2)c2ccc(C)c(=O)[nH]2)cc1 (centres unmarked) [Example 2-1, 6-{2-Cyclopentyl-1-[4-(methylsulfanyl)phenyl]ethyl}-3-methylpyridin-2(1H)-one] | 0.5 to 3 µM |
| Cc1ccc(C(CC2CCCC2)c2ccc(S(C)(=O)=O)cc2)[nH]c1=O (centres unmarked) [Example 2-2, 6-{2-Cyclopentyl-1-[4-(methylsulfonyl)phenyl]ethyl}-3-methylpyridin-2(1H)-one] | 0.5 to 3 µM |
| Cc1ccc(C(CC2CCCC2)c2ccc(S(=O)(=O)C3CC3)cc2)[nH]c1=O (centres unmarked) [Example 2-3, 6-{2-Cyclopentyl-1-[4-(cyclopropylsulfonyl)phenyl]ethyl}-3-methylpyridin-2(1H)-one] | 0.01 to 0.5 µM |
| CSc1ccc(C(CC2CCCC2)c2ccc(C)c(=O)[nH]2)cc1Cl (centres unmarked) [Example 2-4, 6-{1-[3-Chloro-4-(methylsulfanyl)phenyl]-2-cyclopentylethyl}-3-methylpyridin-2(1H)-one] | 0.5 to 3 µM |
| Cc1ccc(C(CC2CCCC2)c2ccc(S(C)(=O)=O)c(Cl)c2)[nH]c1=O (centres unmarked) [Example 2-5, 6-{1-[3-Chloro-4-(methylsulfonyl)phenyl]-2-cyclopentylethyl}-3-methylpyridin-2(1H)-one] | 0.5 to 3 µM |
| CCc1ccc(C(CC2CCCC2)c2ccc(SC)cc2)[nH]c1=O (centres unmarked) [Example 2-6, 6-{2-Cyclopentyl-1-[4-(methylsulfanyl)phenyl]ethyl}-3-ethylpyridin-2(1H)-one] | 0.5 to 3 µM |
| CCc1ccc(C(CC2CCCC2)c2ccc(S(C)(=O)=O)cc2)[nH]c1=O (centres unmarked) [Example 2-7, 6-{2-Cyclopentyl-1-[4-(methylsulfonyl)phenyl]ethyl}-3-ethylpyridin-2(1H)-one] | 0.5 to 3 µM |
| CCCc1ccc(C(CC2CCCC2)c2ccc(SC)cc2)[nH]c1=O (centres unmarked) [Example 2-8, 6-{2-Cyclopentyl-1-[4-(methylsulfanyl)phenyl]ethyl}-3-propylpyridin-2(1H)-one] | 0.5 to 3 µM |
| CCCc1ccc(C(CC2CCCC2)c2ccc(S(C)(=O)=O)cc2)[nH]c1=O (centres unmarked) [Example 2-9, 6-{2-Cyclopentyl-1-[4-(methylsulfonyl)phenyl]ethyl}-3-propylpyridin-2(1H)-one] | 0.5 to 3 µM |
| CS(=O)(=O)c1ccc(C(CC2CCCC2)c2ccc(C3CC3)c(=O)[nH]2)cc1 (centres unmarked) [Example 2-10, 6-{2-Cyclopentyl-1-[4-(methylsulfonyl)phenyl]ethyl}-3-cyclopropylpyridin-2(1H)-one] | 0.5 to 3 µM |
| CCc1ccc(C(CC2CCCC2)c2ccc(S(=O)(=O)CCCO)cc2)[nH]c1=O (centres unmarked) [Example 2-11, 6-(2-Cyclopentyl-1-{4-[(3-hydroxypropyl)sulfonyl]phenyl}ethyl)-3-ethylpyridin-2(1H)-one] | 0.5 to 3 µM |
| CC(C)c1ccc(C(CC2CCCC2)c2ccc(S(C)(=O)=O)cc2)[nH]c1=O (centres unmarked) [Example 2-12, 6-{2-Cyclopentyl-1-[4-(methylsulfonyl)phenyl]ethyl}-3-(propan-2-yl)pyridin-2(1H)-one] | 0.5 to 3 µM |

| SMILES | EC50 |
| --- | --- |
| CCN(CC)CCCS(=O)(=O)c1ccc(C(CC2CCCC2)c2ccc(C)c(=O)[nH]2)cc1Cl (centres unmarked) [Example 2-13, 6-[1-(3-Chloro-4-{[3-(diethylamino)propyl]sulfonyl}phenyl)-2-cyclopentylethyl]-3-methylpyridin-2(1H)-one] | 0.5 to 3 µM |
| Cc1ccc(C(CC2CCCC2)c2ccc(S(=O)(=O)CCCO)c(Cl)c2)[nH]c1=O (centres unmarked) [Example 2-14, 6-(1-{3-Chloro-4-[(3-hydroxypropyl)sulfonyl]phenyl}-2-cyclopentylethyl)-3-methylpyridin-2(1H)-one] | 0.5 to 3 µM |
| Cc1ccc(C(CCC2CCCC2)c2ccc(S(=O)(=O)C3CC3)cc2)[nH]c1=O (centres unmarked) [Example 2-15, 6-{3-Cyclopentyl-1-[4-(cyclopropylsulfonyl)phenyl]propyl}-3-methylpyridin-2(1H)-one] | 0.01 to 0.5 µM |
| CSc1ccc(C(CC2CCCCC2)c2ccc(C)c(=O)[nH]2)cc1 (centres unmarked) [Example 2-16, 6-{2-Cyclohexyl-1-[4-(methylsulfanyl)phenyl]ethyl}-3-methylpyridin-2(1H)-one] | 0.5 to 3 µM |
| Cc1ccc(C(CC2CCCCC2)c2ccc(S(C)(=O)=O)cc2)[nH]c1=O (centres unmarked) [Example 2-17, 6-{2-Cyclohexyl-1-[4-(methylsulfonyl)phenyl]ethyl}-3-methylpyridin-2(1H)-one] | 0.5 to 3 µM |
| CSc1ccc(C(CC2CCOCC2)c2ccc(C)c(=O)[nH]2)cc1 (centres unmarked) [Example 2-18, 3-Methyl-6-{1-[4-(methylsulfanyl)phenyl]-2-(tetrahydro-2H-pyran-4-yl)ethyl}pyridin-2(1H)-one] | 3 to 10 µM |
| Cc1ccc(C(CC2CCOCC2)c2ccc(S(C)(=O)=O)cc2)[nH]c1=O (centres unmarked) [Example 2-19, 3-Methyl-6-{1-[4-(methylsulfonyl)phenyl]-2-(tetrahydro-2H-pyran-4-yl)ethyl}pyridin-2(1H)-one] | 3 to 10 µM |
| CSc1ccc(C(CC2CCC(=O)CC2)c2ccc(C)c(=O)[nH]2)cc1 (centres unmarked) [Example 2-20, 3-Methyl-6-{1-[4-(methylsulfanyl)phenyl]-2-(4-oxocyclohexyl)ethyl}pyridin-2(1H)-one] | 0.5 to 3 µM |
| Cc1ccc(C(CC2CCC(=O)CC2)c2ccc(S(C)(=O)=O)cc2)[nH]c1=O (centres unmarked) [Example 2-21, 3-Methyl-6-{1-[4-(methylsulfonyl)phenyl]-2-(4-oxocyclohexyl)ethyl}pyridin-2(1H)-one] | 3 to 10 µM |
| CSc1ccc(C(C[C@H]2CCC(=O)C2)c2ccc(C)c(=O)[nH]2)cc1 (stereo partly drawn) [Example 2-22, 3-Methyl-6-{1-[4-(methylsulfanyl)phenyl]-2-[(1R)-3-oxocyclopentyl]ethyl}pyridin-2(1H)-one] | 0.5 to 3 µM |
| Cc1ccc(C(C[C@H]2CCC(=O)C2)c2ccc(S(C)(=O)=O)cc2)[nH]c1=O (stereo partly drawn) [Example 2-23, 3-Methyl-6-{1-[4-(methylsulfonyl)phenyl]-2-[(1R)-3-oxocyclopentyl]ethyl}pyridin-2(1H)-one] | 3 to 10 µM |
| CN1CCN(S(=O)(=O)c2ccc(C(CC3CCCC3)c3ccc(Cl)c(=O)[nH]3)cc2)CC1 (centres unmarked) [Example 2-24, 3-Chloro-6-(2-cyclopentyl-1-{4-[(4-methylpiperazin-1-yl)sulfonyl]phenyl}ethyl)pyridin-2(1H)-one] | 3 to 10 µM |
| O=c1[nH]c(C(CC2CCCC2)c2ccc(S(=O)(=O)C3CC3)cc2)ccc1Cl (centres unmarked) [Example 2-25, 3-Chloro-6-{2-cyclopentyl-1-[4-(cyclopropylsulfonyl)phenyl]ethyl}pyridin-2(1H)-one] | 0.5 to 3 µM |
| CSc1ccc(/C(=C\[C@H]2CCC(=O)N2)c2ccc(C3CC3)c(=O)[nH]2)cc1 [Example 4-1, 3-Cyclopropyl-6-{(E)-1-[4-(methylsulfanyl)phenyl]-2-[(2R)-5-oxopyrrolidin-2-yl]ethenyl}pyridin-2(1H)-one] | 0.01 to 0.5 µM |
| CCOc1ccc(/C(=C\[C@H]2CCC(=O)N2)c2ccc(Cl)c(=O)[nH]2)cc1Cl [Example 4-2, 3-Chloro-6-{(E)-1-(3-chloro-4-ethoxyphenyl)-2-[(2R)-5-oxopyrrolidin-2-yl]ethenyl}pyridin-2(1H)-one] | 0.5 to 3 µM |
| CCOc1ccc(C(C[C@H]2CCC(=O)N2)c2ccc(Cl)c(=O)[nH]2)cc1Cl (stereo partly drawn) [Example 4-3, 3-Chloro-6-{1-(3-chloro-4-ethoxyphenyl)-2-[(2R)-5-oxopyrrolidin-2-yl]ethyl}pyridin-2(1H)-one] | 0.5 to 3 µM |
| Cc1ccc(/C(=C\[C@H]2CCC(=O)N2)c2ccc(C3CC3)c(=O)[nH]2)cc1 [Example 4-4, 3-Cyclopropyl-6-{(E)-1-(4-methylphenyl)-2-[(2R)-5-oxopyrrolidin-2-yl]ethenyl}pyridin-2(1H)-one] | 0.01 to 0.5 µM |
